Experimental data: patent US11028127B2, “Peptides capable of reactivating p53 mutants” (Yeda Research and Development Co. Ltd., priority 2013, dated 2021)

Biological target: T1, Mut-p53 (R175H p53) (Homo sapiens, UniProt P04637, R175H)
T1 construct: a hot spot full length mutant p53 Mut-p53 R175H (R175H p53); expressed in transfected cells; host or cells: H1299 (p53-null) cells stably overexpressing R175H p53; cell extract
Assay: Sandwich ELISA for p53 conformation (PAb1620/PAb240 reactivity)
Format: biochemical
Experimental: To measure the conformational effect of the peptides on Mut-p53, a micro-titer plate was coated with either PAb240, PAb1620 or pAb421 (as a positive control and standard for total p53 protein, since the antibody used recognizes both WT and mutant conformations), overnight incubated, washed, blocked, and cell extracts (with or without peptides) were added for an additional 2 hours. After removal of extracts, plates were washed and incubated with the αp53-HRP conjugated Ab for the detection of p53 levels. A TMB (substrate of HRP) assay was performed and optical density was determined at 450 nm. WT p53 served as a positive control for reactivity with PAb1620, and Mut-p53 served as a negative control. The results are presented as the ratio of absorbance between the PAb1620 or PAb240 samples and the control […] sample. MCF7 and H1299-Mut-p53 (ts) A135V (TS) cells were used as positive controls for the WT p53 conformation (1620/240 ratio equals or exceeds 5:1).
96-well plates were coated using 3 different antibodies (1 type of antibody (Ab) in each well): PAb421 recognizes both conformations of p53 and binds to a C-terminus epitope; PAb240 recognizes mutant conformation of p53, binds to epitope within the core domain (amino acids 212-217) (Stephen, C. W. and D. P. Lane, Mutant conformation of p53. Precise epitope mapping using a filamentous phage epitope library. J. Mol. Biol., 1992. 225(3): p. 577-83) which is accessible to the Ab when the protein is partially denatured (for example, when the DBD is mutated); and PAb1620, which recognizes WT conformation of p53, binds to epitope with in the core domain (aa 156, 206-210), formed when folding is in WT conformation (Wang, P. L., F. Salt, and G. Winter, The ‘wild type’ conformation of p53: epitope mapping using hybrid proteins. Oncogene, 2001. 20(18): p. 2318-24).
Wells were incubated overnight (ON) with 100 μl Ab (5 μg/ml) in room temp (RT). The liquid was discarded, and the wells were washed 3 times with Phosphate buffered saline (PBS), 200 μl per each wash. Next, blocking with 200 μl of 5% bovine serum albumin (BSA) diluted in PBS in each well for 1.5 hours at room temperature (RT) was performed. Blocking buffer was discarded, followed by 3 washes in PBS as described above. Samples of mutant and WT p53 proteins (100 μl, 10 μg/ml), together with control peptides pCAP-710 (LPNPPER, SEQ ID NO:328) and pCAP-1220 ([…], SEQ ID NO:368) (5 μg/ml, Sigma Aldrich, or with test peptides 1-153 (5 μg/ml), were incubated for 1.5 hours together, and then added to the wells. Samples were rotated and incubated for 1 hour at RT. Samples were discarded, following 4 washes as described above, using Trisphosphate buffered saline (TPBS). Next, horseradish peroxidase (HRP) conjugated streptavidin p53 antibody (10 μg/ml HAF1355 (R&D)) was added to the wells and incubated at RT for 1 hour. After the plate was washed 3 times in TPBS, TMB substrate solution (50 μl each well, Thermo, (Cat. No. ES001-1L-K)) was added and incubated at 37° c. for 20 min. The reaction was stopped with 2M sulfuric acid (50 μl). The absorbance was measured at 450 nm with a spectrophotometer. Protein concentration was determined by dividing the absorbencies of each sample to the absorbance of Ab 421 samples.
The first screening strategy was based on ELISA. A version of sandwich ELISA was used to examine the effect of the lead test peptides on p53 conformation. To measure the conformational effect of the peptides on Mut-p53, a micro-titer plate was coated with PAb240, PAb1620 or pAb421 (as a positive control), and then the reactivity of p53 to these antibodies was examined. WT p53 served as a positive control for reactivity with PAb1620, and Mut-p53 served as a negative control. To examine the effect of a tested peptide it was added to a solution containing Mut-p53 and change in reactivity to either Ab was tested. […] Several ELISA experiments using different cell extracts were performed. […]

YRRLLIGMMWRRRRRRRRRRR [pCAP-68]
effect on Mut-p53 conformation (conformational change): significant shift in Mut-p53 conformation towards PAb1620 | reactivity of R175H Mut-p53 towards PAb1620 and PAb240 (conformational change) (extract of H1299 cells overexpressing R175H p53, peptide 50 ng/ml, 2 hours): increased reactivity of R175H Mut-p53 towards PAb1620 and decreased reactivity towards PAb240
